Measurements from PubChem BioAssay (NCI).
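The compound was tested at five concentrations on cells cultured in 96-well plates, with a 48-hour exposure period. TGI is the concentration that stops growth completely.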

What was measured:
Experiment in all cases: DTP human tumour cell line panel, 48 h
[1] = system: U251 CNS
[2] = system: LOX IMVI melanoma
[3] = system: SF-295 CNS
[4] = system: SR leukemia
[5] = system: SK-MEL-5 melanoma
[6] = system: HOP-62 NSCLC
[7] = system: RPMI-8226 leukemia
[8] = system: SF-268 CNS
[9] = system: OVCAR-5 ovarian
[10] = system: RXF 393 renal
[11] = system: BT-549 breast
[12] = system: CCRF-CEM leukemia
[13] = system: NCI/ADR-RES ovarian
[14] = system: UACC-62 melanoma
[15] = system: MDA-MB-435
[16] = system: K-562 leukemia
[17] = system: NCI-H522 lung
[18] = system: TK-10 renal
[19] = system: CAKI-1 renal
[20] = system: SNB-75 CNS
[21] = system: MDA-MB-231 breast
[22] = system: SW-620 colon
[23] = system: A498 renal
[24] = system: NCI-H460 lung
[25] = system: SK-MEL-2 melanoma
[26] = system: HCT-15 colon
[27] = system: DU-145 prostate
[28] = system: A549 NSCLC
[29] = system: MCF7 breast
[30] = system: SN12C renal
[31] = system: OVCAR-3 ovarian
[32] = system: UO-31 renal
[33] = system: HS 578T breast
[34] = system: SK-MEL-28 melanoma
[35] = system: HCC-2998 colon
[36] = system: KM12 colon
[37] = system: SNB-19 CNS
[38] = system: NCI-H23 lung
[39] = system: MOLT-4 leukemia
[40] = system: HCT-116 colon
[41] = system: M14 melanoma
[42] = system: SK-OV-3 ovarian
[43] = system: T-47D breast
[44] = system: MDA-N
[45] = system: UACC-257 melanoma
[46] = system: OVCAR-8 ovarian
[47] = system: PC-3 prostate
[48] = system: HL-60(TB) leukemia
[49] = system: 786-0 renal
[50] = system: OVCAR-4 ovarian
[51] = system: MALME-3M melanoma
[52] = system: NCI-H226 lung
[53] = system: ACHN renal
[54] = system: IGROV1 ovarian
[55] = system: EKVX NSCLC
[56] = system: COLO 205 colon
[57] = system: SF-539 CNS
[58] = system: HT29 colon
[59] = system: HOP-92 NSCLC

COC(=O)/C=C(C)/C=C\COC1CCCCO1 (stereo not given)
TGI [1]: > 100 µM
TGI [2]: > 100 µM
TGI [3]: > 100 µM
TGI [4]: > 100 µM
TGI [5]: > 100 µM
TGI [6]: > 100 µM
TGI [7]: > 100 µM
TGI [8]: > 100 µM
TGI [9]: > 100 µM
TGI [10]: > 100 µM
TGI [11]: > 100 µM
TGI [12]: > 100 µM
TGI [13]: > 100 µM
TGI [14]: > 100 µM
TGI [15]: > 100 µM
TGI [16]: > 100 µM
TGI [17]: > 100 µM
TGI [18]: > 100 µM
TGI [19]: > 100 µM
TGI [20]: > 100 µM
TGI [21]: > 100 µM
TGI [22]: > 100 µM
TGI [23]: > 100 µM
TGI [24]: > 100 µM
TGI [25]: > 100 µM
TGI [26]: > 100 µM
TGI [27]: > 100 µM
TGI [28]: > 100 µM
TGI [29]: > 100 µM
TGI [30]: > 100 µM
TGI [31]: > 100 µM
TGI [32]: > 100 µM
TGI [33]: > 100 µM
TGI [34]: > 100 µM
TGI [35]: > 100 µM
TGI [36]: > 100 µM
TGI [37]: > 100 µM
TGI [38]: > 100 µM
TGI [39]: > 100 µM
TGI [40]: > 100 µM
TGI [41]: > 100 µM
TGI [42]: > 100 µM
TGI [43]: > 100 µM
TGI [44]: > 100 µM
TGI [45]: > 100 µM
TGI [46]: > 100 µM
TGI [47]: > 100 µM
TGI [48]: > 100 µM
TGI [49]: > 100 µM
TGI [50]: > 100 µM
TGI [51]: > 100 µM
TGI [52]: > 100 µM
TGI [53]: > 100 µM
TGI [54]: > 100 µM
TGI [55]: > 100 µM
TGI [56]: > 100 µM

COc1ccc(-c2nc3ccccc3c(=O)[nH]2)cc1
TGI [1]: > 100 µM
TGI [2]: > 100 µM
TGI [3]: > 100 µM
TGI [4]: > 100 µM
TGI [57]: > 100 µM
TGI [5]: > 100 µM
TGI [6]: > 100 µM
TGI [7]: > 100 µM
TGI [8]: > 100 µM
TGI [9]: > 100 µM
TGI [10]: > 100 µM
TGI [11]: > 100 µM
TGI [12]: > 100 µM
TGI [13]: > 100 µM
TGI [14]: > 100 µM
TGI [15]: > 100 µM
TGI [16]: > 100 µM
TGI [17]: > 100 µM
TGI [18]: > 100 µM
TGI [19]: > 100 µM
TGI [20]: 84.9 µM
TGI [21]: > 100 µM
TGI [22]: > 100 µM
TGI [23]: > 100 µM
TGI [25]: > 100 µM
TGI [26]: > 100 µM
TGI [27]: > 100 µM
TGI [28]: > 100 µM
TGI [29]: > 100 µM
TGI [30]: > 100 µM
TGI [31]: > 100 µM
TGI [32]: > 100 µM
TGI [33]: 31.9 µM
TGI [34]: > 100 µM
TGI [36]: > 100 µM
TGI [37]: > 100 µM
TGI [38]: > 100 µM
TGI [39]: > 100 µM
TGI [40]: > 100 µM
TGI [41]: > 100 µM
TGI [42]: > 100 µM
TGI [43]: > 100 µM
TGI [44]: > 100 µM
TGI [45]: > 100 µM
TGI [46]: > 100 µM
TGI [47]: > 100 µM
TGI [48]: > 100 µM
TGI [58]: > 100 µM
TGI [49]: > 100 µM
TGI [50]: 95.1 µM
TGI [51]: > 100 µM
TGI [52]: > 100 µM
TGI [54]: > 100 µM
TGI [59]: > 100 µM
TGI [55]: > 100 µM
TGI [56]: > 100 µM

OCCCN=C1CCCCC1
TGI [1]: > 100 µM
TGI [2]: > 100 µM
TGI [3]: > 100 µM
TGI [4]: > 100 µM
TGI [57]: > 100 µM
TGI [5]: > 100 µM
TGI [6]: > 100 µM
TGI [7]: > 100 µM
TGI [8]: > 100 µM
TGI [9]: > 100 µM
TGI [10]: > 100 µM
TGI [11]: > 100 µM
TGI [13]: > 100 µM
TGI [14]: > 100 µM
TGI [15]: > 100 µM
TGI [16]: > 100 µM
TGI [17]: > 100 µM
TGI [18]: > 100 µM
TGI [19]: > 100 µM
TGI [21]: > 100 µM
TGI [22]: > 100 µM
TGI [23]: > 100 µM
TGI [24]: > 100 µM
TGI [25]: > 100 µM
TGI [26]: > 100 µM
TGI [27]: > 100 µM
TGI [28]: > 100 µM
TGI [29]: > 100 µM
TGI [30]: > 100 µM
TGI [31]: > 100 µM
TGI [32]: > 100 µM
TGI [33]: > 100 µM
TGI [34]: > 100 µM
TGI [36]: > 100 µM
TGI [37]: > 100 µM
TGI [38]: > 100 µM
TGI [39]: > 100 µM
TGI [40]: > 100 µM
TGI [41]: > 100 µM
TGI [42]: > 100 µM
TGI [43]: > 100 µM
TGI [44]: > 100 µM
TGI [45]: > 100 µM
TGI [46]: > 100 µM
TGI [47]: > 100 µM
TGI [48]: > 100 µM
TGI [58]: > 100 µM
TGI [49]: > 100 µM
TGI [50]: > 100 µM
TGI [51]: > 100 µM
TGI [52]: > 100 µM
TGI [53]: > 100 µM
TGI [54]: > 100 µM
TGI [59]: > 100 µM
TGI [55]: > 100 µM
TGI [56]: > 100 µM

S=c1ncc(-c2cncc(-c3cnc(=S)[nH]c3)n2)c[nH]1
TGI [1]: > 100 µM
TGI [3]: > 100 µM
TGI [4]: > 100 µM
TGI [57]: > 100 µM
TGI [5]: > 100 µM
TGI [7]: > 100 µM
TGI [8]: > 100 µM
TGI [9]: > 100 µM
TGI [10]: > 100 µM
TGI [11]: > 100 µM
TGI [12]: > 100 µM
TGI [13]: > 100 µM
TGI [14]: > 100 µM
TGI [15]: > 100 µM
TGI [16]: > 100 µM
TGI [17]: > 100 µM
TGI [18]: > 100 µM
TGI [19]: > 100 µM
TGI [20]: > 100 µM
TGI [21]: > 100 µM
TGI [22]: > 100 µM
TGI [23]: > 100 µM
TGI [24]: > 100 µM
TGI [25]: > 100 µM
TGI [26]: > 100 µM
TGI [27]: > 100 µM
TGI [28]: > 100 µM
TGI [29]: > 100 µM
TGI [30]: > 100 µM
TGI [31]: > 100 µM
TGI [32]: > 100 µM
TGI [33]: > 100 µM
TGI [34]: > 100 µM
TGI [35]: > 100 µM
TGI [36]: > 100 µM
TGI [37]: > 100 µM
TGI [38]: > 100 µM
TGI [39]: > 100 µM
TGI [40]: > 100 µM
TGI [41]: > 100 µM
TGI [42]: > 100 µM
TGI [43]: > 100 µM
TGI [44]: > 100 µM
TGI [45]: > 100 µM
TGI [46]: > 100 µM
TGI [47]: > 100 µM
TGI [48]: > 100 µM
TGI [58]: > 100 µM
TGI [49]: > 100 µM
TGI [50]: > 100 µM
TGI [51]: > 100 µM
TGI [52]: > 100 µM
TGI [53]: > 100 µM
TGI [54]: > 100 µM
TGI [59]: > 100 µM
TGI [55]: > 100 µM
TGI [56]: > 100 µM
